Measured values from patent US6174907A, “Benzimidazole compounds containing 1,2,4-triazole ring, and compositions and methods of use containing the same” (Fuji Photo Film Co., Ltd., priority 1995, dated 2001).
Blank lines part the entries; values can stand above or below the compound they belong to.

Tests used:
[1] = test system: mouse peritoneal macrophages; experiment: Suppression of foaming of macrophages (cholesterol ester synthesis) in vitro; type: cell-based, mouse (female ICR); settings: for activity at 5 µM: Mus musculus, Peritoneal macrophage, Table 4, 16 hours, relative to control as 100%, smaller value = more potent suppression, read-out: Rate of CE synthesis (%)
Procedure: Activity of the compounds of the present invention for suppressing the foaming of macrophages
(§1) Activity of the compounds of the present invention for suppressing the foaming of macrophages, which triggers arterial sclerosis, was examined by an in vitro experiment using mouse peritoneal macrophages. 15-Week old female ICR mice (Nippon SLC) were subjected to bleeding by cutting off their cervicalis, and Hanks buffer (Nippon Seiyaku) was injected into their peritoneal cavities. After abdominal regions of the mice were massaged, the buffer was recovered immediately, and then the resulting buffer was centrifuged at 1,000 r.p.m. for five minutes to collect peritoneal macrophages. Then, the collected macrophages were suspended in GTI medium (Wako Pure Chemical Industries), and inoculated onto a 24-well microtiter plate. After the macrophages were cultivated at 37° C. under 5% CO2 for two hours, the culture medium was changed with Dulbecco Modified Eagle Medium (MEM, Nippon Seiyaku). The macrophages were further cultivated at 37° C. under 5% CO2 for 16 hours, and then a test compound and liposomes were added to the culture.
1) Test compound: dissolved in DMSO (Wako Pure Chemical Industries),
PC: Phosphatidylcholine (Funakoshi);
PS: Phosphatidylserine (Funakoshi);
DCP: Dicetylphosphate (Funakoshi);
CHOL: Cholesterol (Sigma)
(§2) After cultivation was further continued at 37° C. under 5% CO2 for 16 hours, lipid fraction was extracted with chloroform and methanol. The extracted lipid fraction was dissolved in isopropyl alcohol, and the produced cholesterol ester (CE) was quantified by an enzymatic luminescence method. Yield of the cholesterol ester was calculated as a relative ratio based on yield of the control as 100% where no test compound was added. Cytotoxicity was examined microscopically by observing morphological alteration of cells. In the tables, compound numbers correspond to those of the compounds of present invention described in the examples.

[2] = test system: mouse peritoneal macrophages; experiment: Cytotoxicity examined microscopically (morphological alteration of cells); type: cell-based, mouse (female ICR); settings: Table 4; 5 μM; observed microscopically
Procedure: as §1, §2

[3] = test system: rabbits fed with high cholesterol food; experiment: Effect on lipid in blood, GOT and GPT in rabbits fed with high cholesterol food; type: in vivo, NZW rabbits (male); settings: 100 mg/kg/day/rabbit in feed; for Difference in total cholesterol compared with the control group / Increase of HDL cholesterol / Reduction of LDL cholesterol compared with the control group: seven days, high cholesterol feed; for GOT / GPT: during the experiment
Source text: (§3) Activity of the compounds of the present invention for suppressing the formation of arterial sclerosis lesions (in vivo experiment) By using rabbits fed with high cholesterol food, effect on lipid in blood and activity of the compounds of the present invention for suppressing formation of arterial sclerosis lesions were examined. Hypercholesterolemia condition was created by feeding NZW rabbits (male) weighing about 2 kg with high cholesterol feed (100 g/day/rabbit of OCR-4 [Oriental Yeast]+0.5% cholesterol+0.5% olive oil) for seven days. A group consisting of three rabbits was continuously administered with a compound of the present invention (Compound B16 or Compound B49) for seven days by mixing the compound with the above feed at an amount of 100 mg/kg/day/rabbit. Another group consisting of three rabbits was fed solely with the high cholesterol feed and used as a control group. Blood was collected from parotid veins with one week interval, and total cholesterol, LDL cholesterol, HDL cholesterol, GOT, and GPT were measured.

[4] = test system: rabbits fed with high cholesterol food; experiment: Suppression of formation of arterial sclerosis lesions (cholesterol deposited on inner vascular walls of aortas); type: in vivo, NZW rabbits (male); settings: 100 mg/kg/day/rabbit in feed; aortas removed seven weeks after the administration
Source text: Activity of the compounds of the present invention for suppressing the formation of arterial sclerosis lesions (in vivo experiment)
as §3, with “By” for “Activity of the compounds of the present invention for suppressing the formation of arterial sclerosis lesions (in vivo experiment) By”, “group.” for “group. Blood was collected from parotid veins with one week interval, and total cholesterol, LDL cholesterol, HDL cholesterol, GOT, and GPT were measured.”
Aortas were removed seven weeks after the administration, and cholesterol deposited on inner vascular walls was quantified. In the groups administered with Compound B16 or Compound B49, the amount of deposited cholesterol was reduced by 40% and 45% compared with control, respectively.

GOT [3]: No abnormal value was observed
GPT [3]: No abnormal value was observed
Structure (SMILES): Cc1nnc(SCCCCCSc2nc3ccccc3[nH]2)s1 [Compound B16]
activity at 5 µM [1]: 9.3%
Cytotoxicity [2]: Not observed
Difference in total cholesterol compared with the control group [3]: no difference in total cholesterol was observed
Increase of HDL cholesterol [3]: 30%
Reduction of LDL cholesterol compared with the control group [3]: 35%
Reduction of the amount of deposited cholesterol on inner vascular walls of aortas compared with control [4]: 40%

GOT [3]: No abnormal value was observed
GPT [3]: No abnormal value was observed
Structure (SMILES): c1cnc(SCCCCCSc2nc3ccccc3[nH]2)nc1 [Compound B49]
activity at 5 µM [1]: 11%
Cytotoxicity [2]: Not observed
Difference in total cholesterol compared with the control group [3]: no difference in total cholesterol was observed
Increase of HDL cholesterol [3]: 30%
Reduction of LDL cholesterol compared with the control group [3]: 30%
Reduction of the amount of deposited cholesterol on inner vascular walls of aortas compared with control [4]: 45%

Structure (SMILES): CSc1nc(C)cc(SCCCCCSc2nc3ccccc3[nH]2)n1 [Compound B56]
activity at 5 µM [1]: 18%
Cytotoxicity [2]: Not observed

Structure (SMILES): c1ccc2nc(SCCCCCSc3nc4ccccc4[nH]3)ccc2c1 [Compound B57]
activity at 5 µM [1]: 26%
Cytotoxicity [2]: Not observed

Structure (SMILES): Oc1cc(SCCCCCSc2nc3cc(Cl)c(Cl)cc3[nH]2)nc2ccccc12 [Compound B58]
activity at 5 µM [1]: 18%
Cytotoxicity [2]: Not observed

Structure (SMILES): c1ccc2[nH]c(SCCCCCSc3ncnc4nc[nH]c34)nc2c1 [Compound B59]
activity at 5 µM [1]: 9.2%
Cytotoxicity [2]: Not observed

Structure (SMILES): c1ccc2[nH]c(SCCCCCSc3ncnc4cn[nH]c34)nc2c1 [Compound B60]
activity at 5 µM [1]: 14%
Cytotoxicity [2]: Not observed

Structure (SMILES): CCCc1cc(SCCCCCSc2nc3ccccc3[nH]2)n2ncnc2n1 [Compound B61]
activity at 5 µM [1]: 12%
Cytotoxicity [2]: Not observed

Structure (SMILES): c1cnc2c(SCCCCCSc3nc4ccccc4[nH]3)cccc2c1 [Compound B62]
activity at 5 µM [1]: 25%
Cytotoxicity [2]: Not observed

Structure (SMILES): FC(F)(F)c1ccc2c(SCCCCCSc3nc4ccccc4[nH]3)ccnc2c1 [Compound B63]
activity at 5 µM [1]: 15%
Cytotoxicity [2]: Not observed

Structure (SMILES): Cn1c(SCCCCCSc2ccccn2)nc2ccccc21 [Compound B64, 5-(2'-(1'-methylbenzimidazolyl)thio)-1-(2"-pyridylthio)pentane]
activity at 5 µM [1]: 24%
Cytotoxicity [2]: Not observed

Structure (SMILES): CCC(=O)n1c(SCCCCCSc2ccccn2)nc2ccccc21 [Compound B65, 5-(2'-(1'-propionylbenzimidazolyl)thio)-1-(2"-pyridylthio)pentane]
activity at 5 µM [1]: 22%
Cytotoxicity [2]: Not observed

Structure (SMILES): CNS(=O)(=O)c1ccc2c(c1)nc(SCCCCCSc1ccccn1)n2C [Compound B66]
activity at 5 µM [1]: 52%
Cytotoxicity [2]: Not observed

Structure (SMILES): c1ccc(SCCOCCSc2nc3ccccc3[nH]2)nc1 [Compound B67]
activity at 5 µM [1]: 54%
Cytotoxicity [2]: Not observed

Structure (SMILES): c1ccc(-c2nc(SCSc3nc4ccccc4[nH]3)[nH]c2-c2ccccc2)cc1 [Control Compound, reference compound]
Activity for suppressing the foaming of macrophages (in words) [1]: did not exhibit activity for suppressing the foaming of macrophages
activity at 5 µM [1]: 102%
Cytotoxicity [2]: Not observed
